Laboratory results published in patent US8999957B2, “Heterocyclic compounds as ERK inhibitors” (Merck Sharp & Dohme Corp., priority 2010, dated 2015).

Experiments:
[1] = target: fully phosphorylated, active Mouse ERK2 protein (Mus musculus (Mouse), UniProt P63085); assay: Active ERK2 (aERK) IMAP assay, condition 1; type: biochemical; settings: aERK assay condition 1, 30 μM ATP
Method: Active ERK2 (aERK) Assay: (Unless Indicated Otherwise, the Data Provided for aERK was obtained using Condition 1)
Activated ERK2 activity was also determined in the IMAP assay format using the procedure outlined above. […] Reactions proceeded for 30 minutes before termination by addition of 60 μl IMAP detection beads in binding buffer. Plates were read as above after 30 minute binding equilibration.

ERK protein = ERK protein (Mus musculus, UniProt P63085); assay: TdF (Temperature Dependence Fluorescence, thermal shift) assay for ERK; type: binding; settings: 3 μM ERK protein, uncertainty estimated ±50%, read-out: Kd TdF
Chain of ERK protein (P63085 2-358 limits assumed): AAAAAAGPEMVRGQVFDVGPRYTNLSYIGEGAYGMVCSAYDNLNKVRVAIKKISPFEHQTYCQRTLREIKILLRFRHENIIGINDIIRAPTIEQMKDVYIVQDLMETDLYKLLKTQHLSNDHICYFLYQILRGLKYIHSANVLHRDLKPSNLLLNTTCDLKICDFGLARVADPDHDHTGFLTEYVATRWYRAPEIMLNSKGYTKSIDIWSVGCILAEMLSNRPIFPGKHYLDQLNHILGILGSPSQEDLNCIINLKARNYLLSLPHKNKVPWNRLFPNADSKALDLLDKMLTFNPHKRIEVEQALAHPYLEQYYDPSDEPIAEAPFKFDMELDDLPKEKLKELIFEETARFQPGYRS
Description: Assays: TdF Assay for ERK […] The TdF assay was mainly conducted in the 96-well based CHROMO-4 real time fluorescence plate reader (BioRad). The Sypro Orange (Sigma-Aldrich), environmentally sensitive fluorescence dye, was used to monitor the protein folding-unfolding transition. Protein-ligand binding was gauged by the change (or shift) in the unfolding transition temperature (ΔTm) acquired at protein alone with respect to protein in the presence of ligand of interest. Compound of interest was first prepared in DMSO stock (typical concentration: 10 mM). […] Final percentage of DMSO resided in the sample was 2%. The sample plate was heated from 30° C. to 90° C. with thermal ramping rate of 1° C./min. […] The instrument thermal stability was ±0.2° C. The melting temperatures (Tm) for ERK protein under aforementioned conditions occurred at 61.0±0.2° C. and 64.8±02° C. respectively. Theoretical Basis for TdF-Based Ligand Binding Affinity Constant […] In brief, the binding constant of the ligand at the Tm is expressed as below: [formula] where T0 is the midpoint of unfolding for unliganded protein and Tm is the midpoint of unfolding in presence of ligand. [LTm] is free ligand at Tm. The ΔHu and ΔCpu are the enthalpy of unfolding and heat capacity change of unfolding for the protein respectively. Following algorithm derived by Winsor and coworker, the T0, ΔHu and ΔCpu can be determined separately from nonlinear regression fitting the protein alone melting curve: Where F(T) is the observed fluorescence intensity at any temperature T, Yn and Yu are the predicted fluorescence intensities for fully folded and unfolded protein, respectively; mn and mu are slope correction for changes in Yn and Yu with respect to changes in temperature (analogously replace T0 with Tm in the above equation for liganded protein to yield Tm). […] [formula] where ΔHL (T) is the van't Hoff enthalpy of ligand binding at temperature T and ΔCpL is the heat capacity upon ligand binding. For simplicity, the ΔCpL and ΔHL (T) were set to zero and −7 kcal/mol respectively.

[2] = target: inactive ERK2 (unphosphorylated Mouse ERK2 protein) (Mus musculus (Mouse), UniProt P63085); assay: Coupled ERK2 (cERK) assay, coupled MEK1/ERK2 IMAP assay; type: biochemical; settings: 30 μM ATP
Chain of inactive ERK2 (unphosphorylated Mouse ERK2 protein) (P63085 whole entry): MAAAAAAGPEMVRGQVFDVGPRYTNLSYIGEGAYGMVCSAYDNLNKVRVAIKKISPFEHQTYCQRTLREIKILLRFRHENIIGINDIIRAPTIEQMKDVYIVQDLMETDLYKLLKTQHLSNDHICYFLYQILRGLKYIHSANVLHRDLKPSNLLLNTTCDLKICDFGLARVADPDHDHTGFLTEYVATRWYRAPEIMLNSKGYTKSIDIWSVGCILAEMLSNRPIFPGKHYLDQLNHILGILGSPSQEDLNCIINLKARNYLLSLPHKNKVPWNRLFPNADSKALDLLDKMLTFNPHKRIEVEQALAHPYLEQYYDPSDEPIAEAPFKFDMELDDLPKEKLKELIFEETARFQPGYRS
Method: 14 μl of kinase buffer (10 mM Tris.HCl pH 7.2, 10 mM MgCl2, 0.01% Tween-20, 1 mM DTT) containing 0.4 ng unphosphorylated Mouse ERK2 protein was added to each well of a black 384-well assay plate. […] DMSO concentration during initial incubation is 6.7%. ERK2 activity was determined to be insensitive to DMSO concentrations up to 20%. ERK2 was then activated and it's kinase activity measured by the addition of 10 μl kinase buffer with the following components (final concentration per reaction): 2 ng active (phosphorylated) human MEK1 protein and 4 μM (total) ERK2 IMAP substrate peptides (3.9 μM unlabeled […]-CONH2 and 100 nM […](5-carboxyfluorescein)-CONH2) and 30 μM ATP. DMSO concentration during ERK activation was 4%. After one hour, reactions were terminated by addition of 60 μl IMAP detections beads in binding buffer (Molecular Devices). Binding was allowed to equilibrate for 30 minutes before reading the plate on an LJL Analyst Fluorescence Polarization plate reader. […] Active compounds were reconfirmed in an independent assay.

Chain of fully phosphorylated, active Mouse ERK2 protein (P63085 whole entry): as above

| SMILES | IC50 [1] | Kd (ERK protein) | IC50 [2] |
| --- | --- | --- | --- |
| CN1CC(NC(=O)c2ccc3[nH]nc(-c4ccncc4)c3c2)CC(c2ccccc2)C1 (centres unmarked) [drawing 158, N-(1-methyl-5-phenylpiperidin-3-yl)-3-(pyridin-4-yl)-1H-indazole-5-carboxamide] | 2.6 nM | 1.4 nM | 7.4 nM |
| O=C(N[C@@H]1CCCN(Cc2ccccc2F)C1)c1ccc2[nH]nc(-c3ccnc(Cl)c3)c2c1 | 26.1 nM | 0.58 nM | 25 nM |
| CC(C)Oc1ccc(-c2n[nH]c3ccc(C(=O)N[C@@H]4CCCN(Cc5ccccc5F)C4)cc23)cn1 | 77.9 nM | 2 nM | 124 nM |
| O=C(NC1CCCN(Cc2ccccc2F)C1)c1ccc2[nH]nc(-c3ccc4c(c3)CCO4)c2c1 (centres unmarked) | 284 nM | 2.6 nM | 231 nM |
| O=C(NC1CCCN(Cc2ccccc2F)C1)c1ccc2[nH]nc(-c3ccncc3)c2c1 (centres unmarked) | 28.1 nM | 0.3 nM | 14.4 nM |
| O=C(N[C@H]1CCCN(Cc2ccccc2F)C1)c1ccc2[nH]nc(-c3ccncc3)c2c1 | 224 nM | 38 nM | 166 nM |
| O=C(N[C@@H]1CCCN(Cc2ccccc2F)C1)c1ccc2[nH]nc(-c3ccncc3)c2c1 | 5.5 nM | 0.6 nM | 1.1 nM |
| O=C(N[C@@H]1CCCN(Cc2ccccc2)C1)c1ccc2[nH]nc(-c3ccncc3)c2c1 | 5.8 nM | 0.3 nM | 2.9 nM |
| O=C(NC1CCCN(Cc2ccccc2)C1)c1ccc2[nH]nc(-c3ccncc3)c2c1 (centres unmarked) | 32.5 nM | 0.6 nM | 16.6 nM |
| O=C(N[C@@H]1CCCN(Cc2ccccc2F)C1)c1ccc2[nH]nc(-c3ccc4c(c3)CCO4)c2c1 | 52.1 nM | 0.61 nM | 48.6 nM |
| COc1cccc(F)c1CN1CCC[C@@H](NC(=O)c2ccc3[nH]nc(-c4ccc(S(=O)(=O)N(C)C)cc4)c3c2)C1 | 359 nM | 2.63 nM | – |
| COc1cccc(F)c1CN1C[C@H](C)C[C@@H](NC(=O)c2ccc3[nH]nc(-c4ccc5nn(C)cc5c4)c3c2)C1 | 217 nM | 0.39 nM | – |
| COc1cccc(F)c1CN1CCC[C@@H](NC(=O)c2ccc3[nH]nc(-c4ccc(C(C)=O)cc4)c3c2)C1 | 189 nM | 0.9 nM | – |
| COc1cc(-c2n[nH]c3ccc(C(=O)N[C@@H]4CCCN(Cc5ccccc5F)C4)cc23)ccn1 | 112 nM | 0.81 nM | – |
| O=C(NC1CCCN(Cc2ccccc2)C1)c1ccc2[nH]nc(-c3ccc4c(c3)CCO4)c2c1 (centres unmarked) | 134 nM | 1.4 nM | 172 nM |
| CCCOc1ccccc1CN1CCC[C@@H](NC(=O)c2ccc3[nH]nc(-c4ccnc(C)c4)c3c2)C1 | 246 nM | 1.72 nM | – |
| COC(=O)C1CC(NC(=O)c2ccc3[nH]nc(-c4ccnc(C)c4)c3c2)CN(Cc2c(F)cccc2OC)C1 (centres unmarked) | 146 nM | 3.79 nM | – |
| COc1ccsc1CN1CCC[C@@H](NC(=O)c2ccc3[nH]nc(-c4ccnc(C)c4)c3c2)C1 | 137 nM | 0.97 nM | – |
| COc1cccc(F)c1CN1CCC[C@@H](NC(=O)c2ccc3[nH]nc(-c4ccc5oc(C)nc5c4)c3c2)C1 | 45.6 nM | 0.6 nM | – |
| CC(C)Oc1ccc(-c2n[nH]c3ccc(C(=O)NC4CCCN(Cc5ccccc5F)C4)cc23)cn1 (centres unmarked) | 769 nM | 2.9 nM | 307 nM |
| Cc1cc(-c2n[nH]c3ccc(C(=O)N[C@@H]4CCCN(Cc5cc6ccccc6n5C)C4)cc23)ccn1 | 41.7 nM | 0.21 nM | – |
| CC(=O)n1cc(CN2CCC[C@@H](NC(=O)c3ccc4[nH]nc(-c5ccnc(C)c5)c4c3)C2)c2ccccc21 | 154 nM | 1.95 nM | – |

| SMILES | IC50 [1] | Kd (ERK protein) | IC50 [2] |
| --- | --- | --- | --- |
| CCn1cc(-c2n[nH]c3ccc(C(=O)N[C@@H]4CCCN(Cc5c(F)cccc5OC)C4)cc23)cn1 | 114 nM | 1.59 nM | – |
| COc1cccc(F)c1CN1CCC[C@@H](NC(=O)c2ccc3[nH]nc(-c4ccnc(C)c4)c3c2)C1 | 4.98 nM | 0.22 nM | – |
| COc1cccc(F)c1CN1C[C@@H](NC(=O)c2ccc3[nH]nc(-c4ccc5nccn5c4)c3c2)CCC1=O | 663 nM | 17.7 nM | – |
| CC(=O)Nc1cc(-c2n[nH]c3ccc(C(=O)N[C@@H]4CCCN(Cc5ccccc5F)C4)cc23)ccc1O | 74.7 nM | 0.48 nM | – |
| COc1cccc(F)c1CN1CCC[C@@H](NC(=O)c2ccc3[nH]nc(-c4ccc5sccc5c4)c3c2)C1 | 807 nM | 0.15 nM | – |
| CC1CC(NC(=O)c2ccc3[nH]nc(-c4ccncc4)c3c2)CN(Cc2ccccc2F)C1 (centres unmarked) | 16.4 nM | 0.052 nM | – |
| COc1cccc(F)c1CN1CCC[C@@H](NC(=O)c2ccc3[nH]nc(-c4ccc5cn[nH]c5c4)c3c2)C1 | 163 nM | 0.27 nM | – |
| COc1ccccc1CN1CCC[C@@H](NC(=O)c2ccc3[nH]nc(-c4ccc(O)c(NC(C)=O)c4)c3c2)C1 | 254 nM | 1.29 nM | – |
| Cc1cc(-c2n[nH]c3ccc(C(=O)N[C@@H]4CCCN(Cc5c(F)cccc5F)C4)cc23)ccn1 | 29.7 nM | 0.51 nM | – |
| COc1cccc(F)c1CN1CC(CO)CC(NC(=O)c2ccc3[nH]nc(-c4ccc5nccn5c4)c3c2)C1 (centres unmarked) | 140 nM | 1.68 nM | – |
| COc1cccc(F)c1CN1C[C@H]2C[C@@H]1[C@H](NC(=O)c1ccc3[nH]nc(-c4ccc5nn(C)cc5c4)c3c1)C2 | 527 nM | 85.2 nM | – |
| CC(c1ccccc1)N1CCC[C@@H](NC(=O)c2ccc3[nH]nc(-c4ccncc4)c3c2)C1 (some centres unmarked) | 475 nM | 804 nM | 763 nM |
| CC(C)Oc1ccc(-c2n[nH]c3ccc(C(=O)N[C@@H]4CCCN(Cc5ccccc5F)C4)cc23)cc1 | 275 nM | 1.2 nM | 443 nM |
| Cc1cc(-c2n[nH]c3ccc(C(=O)N[C@@H]4CCCN(Cc5ncccc5F)C4)cc23)ccn1 | 234 nM | 1.89 nM | – |
| O=C(N[C@H]1CCCN(Cc2ccccc2)C1)c1ccc2[nH]nc(-c3ccncc3)c2c1 | 485 nM | 118 nM | 304 nM |
| Cc1cc(-c2n[nH]c3ccc(C(=O)N[C@@H]4CCCN(Cc5ccccc5Cl)C4)cc23)ccn1 | 28.1 nM | 0.2 nM | – |
| COc1cccc(F)c1CN1CCC[C@@H](NC(=O)c2ccc3[nH]nc(-c4ccc(N)c(OC(C)=O)c4)c3c2)C1 | 483 nM | 6.5 nM | – |
| Cc1cc(-c2n[nH]c3ccc(C(=O)N[C@@H]4CCCN(C(C)c5ccccc5)C4)cc23)ccn1 (some centres unmarked) | 128 nM | 4.4 nM | – |
| Cc1cc(-c2n[nH]c3ccc(C(=O)N[C@@H]4CCCN(Cc5cn(C)c6ccccc56)C4)cc23)ccn1 | 21.5 nM | 1.38 nM | – |
| O=C(N[C@@H]1CCCN(Cc2ccccc2F)C1)c1ccc2[nH]nc(-c3ccnc(C4CC4)c3)c2c1 | 33.2 nM | 0.4 nM | – |
| COc1cccc(F)c1CN1CCC[C@@H](NC(=O)c2ccc3[nH]nc(-c4ccc(O)c(NC(C)=O)c4)c3c2)C1 | 64.9 nM | 0.66 nM | – |
